Laboratory results from US20240199651A1, “ANTIBACTERIAL COMPOUNDS” (JANSSEN SCIENCES IRELAND UNLIMITED COMPANY, priority 2021, published 2024).
Values after ≈ are worked out from the molar mass of the structure shown. Read-outs that look alike come from different tables or passages of the source.

Experiments:
in vitro = in vitro ADME; conditions: human, plasma
Excerpt: PPB % Free (Human at 1 μm)

[1] = LM CLint (microsomal stability), human; format: in vitro ADME; conditions: liver microsomes, read-out: CLint Microsomes, Human (h)
Excerpt: (§1) The compounds of the invention/examples may have advantages associated with in vitro potency, kill kinetics (i.e. bactericidal effect) in vitro, PK properties, food effect, safety/toxicity (including liver toxicity, coagulation, 5-LO oxygenase), metabolic stability, Ames II negativity, MNT negativity, aqueous based solubility (and ability to formulate) and/or cardiovascular effect e.g. on animals (e.g. anesthetized guinea pig). Data that is generated/calculated may be obtained using standard methods/assays, for instance that are available in the literature or which may be performed by a supplier (e.g. Microsomal Stability Assay—Cyprotex, Mitochondrial toxicity (Glu/Gal) assay—Cyprotex, as well as literature CYP cocktail inhibition assays). GSH can be measured (reactive metabolites, glucuronidation) to observe if a dihydrodiol is observed by LCMS (fragmentation ions), which would correspond to a dihydroxylation on the core heterocycle.
(§2) CLint Microsomes (μL/Min/Mg) in Dog (d), Human (h), Mouse (m) and Rat (r) (all at 1 μm)

[2] = tested on: Mycobacterium tuberculosis strain EH4.0 expressing green-fluorescent protein (GFP); test: microbe, parasite or virus in culture; format: cell-based; conditions: Mycobacterium tuberculosis; Test 1 (and/or Test 2); M. tuberculosis
[3] = LM CLint (microsomal stability), mouse; format: in vitro ADME; conditions: microsomes, 1 μm, read-out: CLint Microsomes, Mouse (m)
Excerpt: as §1, §2

[4] = Mitochondrial toxicity (Glu/Gal) assay; format: cell-based
M. tuberculosis H37Rv = M. tuberculosis H37Rv inside macrophages; cited from earlier work

SMILES: CCc1nc2ccc(Cl)cn2c1C(=O)NCc1ccc(-c2nc3n(n2)CCN(S(=O)(=O)C(F)(F)F)C3)cc1 [Compound 1]
- fraction unbound at 1 µM (in vitro): 0.00047
- microsomal CLint at 1 µM [1]: 30.3 µL/min/mg
- IC50 [2]: 0.00776 µM
- microsomal CLint at 1 µM [3]: 49.2 µL/min/mg
- IC50 ([4]; read-out: IC50, gal): > 200 µM
- IC50 ([4]; read-out: IC50, glu): > 200 µM

SMILES: CCc1nc2ccc(Cl)cn2c1C(=O)NCc1ccc(N2CCC(c3ccc(OC(F)(F)F)cc3)CC2)cc1 [Compound Q203, Q203]
- MIC50 (M. tuberculosis H37Rv): 0.28 nM (≈ 0.156 ng/mL)
